This is an account of results in patent US10039753B2, “Imidazo[4,5-c]quinoline and imidazo[4,5-c][1,5]naphthyridine derivatives as LRRK2 inhibitors” (Pfizer Inc., priority 2015, dated 2018).

By IC50 is commonly meant the midpoint of a concentration-inhibition curve.

Experiment [1] has as its target T1, GST-tagged truncated LRRK2 (Homo sapiens, UniProt Q5S007).
T1 construct: GST-tagged truncated LRRK2 from Invitrogen (Cat # PV4874); GST; purchased Invitrogen PV4874
The experiment can be described thus: LRRK2 Assay, Format 1 (Lantha Screen), WT. The class given is biochemical. Summed up:
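Kinase activity measured by TR-FRET: GST-tagged truncated LRRK2 (4 μg/mL working solution) reacted with fluorescein-labeled LRRKtide (ERM-based peptide) across a compound dose response for 2 h at room temperature. Reaction stopped with EDTA-containing detection buffer (20 mM Tris pH 7.6) holding 2 nM terbium anti-phospho-ERM antibody.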

The target in experiment [2] is T2, mutant G2019S LRRK2 (Homo sapiens, UniProt Q5S007, G2019S). Put plainly: LRRK2 Assay, Format 2 (Lantha Screen), G2019S mutant. The following applies: 100 nM LRRKtide, 1000 mM ATP (so in the source), 30 minutes at room temperature; read-out: LRRK2, Format 2 G2019S mutant IC50. The arrangement: purchased Invitrogen PV4881. The class given is biochemical.
T2 sequence (Q5S007 970-2527 G2019S limits assumed): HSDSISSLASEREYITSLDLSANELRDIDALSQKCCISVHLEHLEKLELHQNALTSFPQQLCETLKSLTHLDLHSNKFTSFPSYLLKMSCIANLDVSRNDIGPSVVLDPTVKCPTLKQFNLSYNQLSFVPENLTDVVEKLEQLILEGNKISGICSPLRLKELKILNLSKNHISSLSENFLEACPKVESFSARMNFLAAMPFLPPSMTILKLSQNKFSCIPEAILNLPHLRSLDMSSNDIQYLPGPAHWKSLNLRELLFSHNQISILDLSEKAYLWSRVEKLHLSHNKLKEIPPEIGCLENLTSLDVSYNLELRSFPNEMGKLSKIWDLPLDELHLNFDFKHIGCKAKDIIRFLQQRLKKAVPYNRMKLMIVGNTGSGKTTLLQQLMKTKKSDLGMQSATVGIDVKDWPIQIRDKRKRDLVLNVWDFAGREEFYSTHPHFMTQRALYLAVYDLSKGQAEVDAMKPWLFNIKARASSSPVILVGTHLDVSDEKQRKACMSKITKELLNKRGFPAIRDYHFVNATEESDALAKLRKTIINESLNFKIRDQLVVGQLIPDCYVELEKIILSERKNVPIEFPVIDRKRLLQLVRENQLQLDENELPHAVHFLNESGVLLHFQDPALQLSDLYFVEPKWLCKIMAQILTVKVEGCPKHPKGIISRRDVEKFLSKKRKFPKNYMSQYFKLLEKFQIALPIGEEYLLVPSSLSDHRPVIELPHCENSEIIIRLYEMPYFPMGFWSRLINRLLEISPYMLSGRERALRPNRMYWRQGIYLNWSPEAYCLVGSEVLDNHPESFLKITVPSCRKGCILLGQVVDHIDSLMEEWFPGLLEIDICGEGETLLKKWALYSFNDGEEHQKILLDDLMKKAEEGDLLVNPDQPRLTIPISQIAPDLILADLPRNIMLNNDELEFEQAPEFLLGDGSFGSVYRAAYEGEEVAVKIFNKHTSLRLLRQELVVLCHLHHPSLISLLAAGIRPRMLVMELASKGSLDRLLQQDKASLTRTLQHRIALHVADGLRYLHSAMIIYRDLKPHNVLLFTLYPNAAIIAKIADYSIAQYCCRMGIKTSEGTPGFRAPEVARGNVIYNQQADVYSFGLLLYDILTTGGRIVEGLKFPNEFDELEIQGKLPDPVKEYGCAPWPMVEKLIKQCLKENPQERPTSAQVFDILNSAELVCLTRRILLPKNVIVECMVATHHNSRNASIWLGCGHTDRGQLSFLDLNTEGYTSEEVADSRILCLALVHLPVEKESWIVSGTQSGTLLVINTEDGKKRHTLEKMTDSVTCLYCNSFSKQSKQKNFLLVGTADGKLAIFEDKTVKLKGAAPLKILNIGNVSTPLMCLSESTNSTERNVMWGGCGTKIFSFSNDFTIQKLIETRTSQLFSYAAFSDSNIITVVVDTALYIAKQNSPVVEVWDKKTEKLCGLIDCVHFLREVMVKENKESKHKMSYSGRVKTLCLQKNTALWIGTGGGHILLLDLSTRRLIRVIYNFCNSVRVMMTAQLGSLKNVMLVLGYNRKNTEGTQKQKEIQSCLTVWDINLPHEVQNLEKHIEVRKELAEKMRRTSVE
For experiment [3], the target named is T2, mutant G2019S LRRK2. The experiment can be described thus: LRRK2 Assay, Format 1 (Lantha Screen), G2019S mutant.
Method: LRRK2 kinase activity was measured using Lantha Screen technology from Invitrogen. GST-tagged truncated LRRK2 from Invitrogen (Cat # PV4874) was incubated with a fluorescein-labeled peptide substrate based upon ezrin/radixin/moesin (ERM), also known as LRRKtide (Invitrogen cat # PR8976A), in the presence of a dose response of compound. Upon completion, the assay was stopped and detected with a terbium labeled anti-phospho-ERM antibody (Invitrogen, cat # PR8975A). […] Aliquots (3.5 μL) of the 100% DMSO dose response were mixed with 46.5 μL water then 1 μL of this mixture was added to the 3 μL substrate mix in the 384-well plate. The kinase reaction was started with 3 μL of a working solution of LRRK2 enzyme at a concentration of 4 μg/mL. […] The reaction was allowed to progress at room temperature for two hours and then stopped with the addition of 7 μL of detection buffer (20 mM Tris pH 7.6, 0.01% NP-40, 0.02% NaN3, 6 mM EDTA with 2 nM terbium labeled anti-phospho-ERM).
All final concentrations of substrate ATP and enzyme were the same.
The target of experiment [4] is T1, GST-tagged truncated LRRK2. The experiment can be described thus: LRRK2 Assay, Format 2 (Lantha Screen), WT. It counts as biochemical. The following applies: 100 nM LRRKtide, 1000 mM ATP (so in the source), 30 minutes at room temperature.
Where [5] appears, read: 100 nM LRRKtide, 50 μM ATP, 1.7 μg/mL LRRK2 enzyme, two hours at room temperature.
Where [6] appears, read: Format 1, wild-type LRRK2, geometric mean of 2-4 determinations unless footnoted (a: ≥5 determinations; b: single determination; c: determined on trifluoroacetate salt).

Structures can show the parent of a compound that is named as a salt.

T1 sequence (Q5S007 970-2527 limits assumed): as the sequence (Q5S007 970-2527 G2019S limits assumed) above, with S1050G counted along it

`Cc1nc(Cc2nc3cnc4ccc(Cl)cc4c3n2C2C[C@@H](C)[C@@H](F)C2)no1` (mixture of isomers) [diastereomer of Example 136, 8-chloro-1-[rel-(3S,4R)-3-fluoro-4-methylcyclopentyl]-2-[(5-methyl-1,2,4-oxadiazol-3-yl)methyl]-1H-imidazo[4,5-c]quinoline, DIAST-2]: the IC50 in experiment [1] (setting [5]) worked out at 156 nM; in experiment [2], 69.2 nM; in experiment [3], 105 nM; in experiment [4], 63.2 nM.

As for `Fc1ccc2ncc3nc(Cc4ccon4)n(C4CCOCC4)c3c2c1` [Example 75, 8-fluoro-2-(1,2-oxazol-3-ylmethyl)-1-(tetrahydro-2H-pyran-4-yl)-1H-imidazo[4,5-c]quinoline, trifluoroacetate salt], the IC50 was determined as 130 nM in experiment [1] (setting [6]) and 155 nM in experiment [3].

Consider `F[C@H]1CC[C@@H](n2c(Cc3ccon3)nc3cnc4ccccc4c32)C1` [Example 16, 1-[(1R,3S)-3-fluorocyclopentyl]-2-(1,2-oxazol-3-ylmethyl)-1H-imidazo[4,5-c]quinoline], for which the figures for the IC50 in experiment [1] (setting [6]) and in experiment [3] were 158 nM and 184 nM, respectively.

Regarding `FC1(F)CCC(n2c(Cc3ccon3)nc3cnc4ccccc4c32)CC1` [Example 48, 1-(4,4-difluorocyclohexyl)-2-(1,2-oxazol-3-ylmethyl)-1H-imidazo[4,5-c]quinoline], the half-inhibitory concentration (IC50) was 194 nM in experiment [1] (setting [6]) and 118 nM in experiment [3].

With `C[C@@H]1C[C@H](n2c(Cc3cscn3)nc3cnc4ccc(Cl)cc4c32)CCO1` [Example 53, 8-chloro-1-[(2R,4R)-2-methyltetrahydro-2H-pyran-4-yl]-2-(1,3-thiazol-4-ylmethyl)-1H-imidazo[4,5-c]quinoline], the values for the IC50 in experiment [1] (setting [6]) and in experiment [3] were 3.1 nM and 1.9 nM, respectively.

For `COc1ccc(Cc2nc3cnc4ccc(Cl)cc4c3n2[C@@H]2CCO[C@H](C)C2)nc1` [Example 2, 8-Chloro-2-[(5-methoxypyridin-2-yl)methyl]-1-[(2R,4R)-2-methyltetrahydro-2H-pyran-4-yl]-1H-imidazo[4,5-c]quinoline], the results for the 50% inhibitory concentration (IC50) in experiment [1] (setting [6]) and in experiment [3] were 6.8 nM and 5.6 nM, respectively.

In the case of `C[C@@H]1C[C@H](n2c(Cc3cscn3)nc3c(N)nc4ccc(Cl)cc4c32)CCO1` [Example 85, 8-chloro-1-[(2R,4R)-2-methyltetrahydro-2H-pyran-4-yl]-2-(1,3-thiazol-4-ylmethyl)-1H-imidazo[4,5-c]quinolin-4-amine, trifluoroacetate salt], the IC50 was 12.3 nM in experiment [1] (setting [6]) and 10 nM in experiment [3].

For `Cc1nc(Cc2nc3cnc4ccc(Cl)cc4c3n2C2CCOC(CC#N)C2)no1` (single isomer, unassigned; ent-2) [enantiomer of Example 135, [cis-4-{8-chloro-2-[(5-methyl-1,2,4-oxadiazol-3-yl)methyl]-1H-imidazo[4,5-c]quinolin-1-yl}tetrahydro-2H-pyran-2-yl]acetonitrile, ENT-2], the IC50 was found to be 1450 nM in experiment [1] (setting [5]) and 1220 nM in experiment [3].

`CC[C@@H]1C[C@H](n2c(Cc3ccon3)nc3cnc4ccc(C#N)cc4c32)CCO1` [Example 67, 1-[(2R,4R)-2-ethyltetrahydro-2H-pyran-4-yl]-2-(1,2-oxazol-3-ylmethyl)-1H-imidazo[4,5-c]quinoline-8-carbonitrile]: the figures for the IC50 in experiment [1] (setting [6]) and in experiment [3] were 5.8 nM and 4 nM, respectively.

Regarding `COc1ccc(Cc2nc3cnc4ccccc4c3n2C2CCOCC2)nc1` [Example 37, 2-[(5-methoxypyridin-2-yl)methyl]-1-(tetrahydro-2H-pyran-4-yl)-1H-imidazo[4,5-c]quinoline], the IC50 came to 133 nM in experiment [1] (setting [6]) and 143 nM in experiment [3].

Consider `C[C@@H]1C[C@H](n2c(Cc3ccon3)nc3cnc4ccc(F)cc4c32)CCO1` [Example 54, 8-fluoro-1-[(2R,4R)-2-methyltetrahydro-2H-pyran-4-yl]-2-(1,2-oxazol-3-ylmethyl)-1H-imidazo[4,5-c]quinoline], for which the IC50 in experiment [1] (setting [6]) stood at 8.8 nM; in experiment [3] it was 8 nM.

Turning to `C[C@@H]1C[C@H](n2c(Cc3cscn3)nc3cnc4ccc(Br)cc4c32)C[C@H](C)O1` [Example 60], the IC50 in experiment [1] (setting [6]) is 35.1 nM; in experiment [3], 11.5 nM.

In the case of `Fc1ccc2ncc3nc(Cc4cn5ncsc5n4)n(C4CCOCC4)c3c2c1` [Example 82, 8-fluoro-2-(imidazo[2,1-b][1,3,4]thiadiazol-6-ylmethyl)-1-(tetrahydro-2H-pyran-4-yl)-1H-imidazo[4,5-c]quinoline, trifluoroacetate salt], the IC50 in experiment [1] (setting [6]) is 17.6 nM; in experiment [3], 16.2 nM.

`c1ccc2oc(Cc3nc4cnc5ccccc5c4n3C3CCOCC3)nc2c1` [Example 34, 2-(1,3-benzoxazol-2-ylmethyl)-1-(tetrahydro-2H-pyran-4-yl)-1H-imidazo[4,5-c]quinoline]: the IC50 stood at 111 nM in experiment [1] (setting [6]) and 139 nM in experiment [3].

With `CC1(C)CC(n2c(Cc3ccon3)nc3cnc4ccccc4c32)CCO1` (stereo not drawn) [Example 47, 1-(2,2-dimethyltetrahydro-2H-pyran-4-yl)-2-(1,2-oxazol-3-ylmethyl)-1H-imidazo[4,5-c]quinoline], the results for the IC50 in experiment [1] (setting [6]) and in experiment [3] were 103 nM and 80.6 nM, respectively.

Regarding `C[C@@H]1C[C@H](n2c(Cc3cscn3)nc3cnc4ccc(C#N)cc4c32)CCO1` [Example 57, 1-[(2R,4R)-2-methyltetrahydro-2H-pyran-4-yl]-2-(1,3-thiazol-4-ylmethyl)-1H-imidazo[4,5-c]quinoline-8-carbonitrile], the IC50 in experiment [1] (setting [6]) worked out at 6.1 nM; in experiment [3], 4 nM.

Consider `COc1ccc2ncc3nc(Cc4noc(C)n4)n([C@H]4CCO[C@@H](C)C4)c3c2c1` [enantiomer of Example 87, 8-methoxy-2-[(5-methyl-1,2,4-oxadiazol-3-yl)methyl]-1-[(2S,4S)-2-methyltetrahydro-2H-pyran-4-yl]-1H-imidazo[4,5-c]quinoline], for which the IC50 was found to be 2850 nM in experiment [1] (setting [5]) and 929 nM in experiment [3].

In the case of `C[C@H]1C[C@@H](n2c(Cc3ccon3)nc3cnc4cccnc4c32)CCO1` [enantiomer of Example 68, 1-[(2 S,4S)-2-methyltetrahydro-2H-pyran-4-yl]-2-(1,2-oxazol-3-ylmethyl)-1H-imidazo[4,5-c][1,5]naphthyridine], the IC50 stood at 853 nM in experiment [1] (setting [5]) and 632 nM in experiment [3].

In the case of `Fc1ccc2ncc3nc(Cn4cc5ccccc5n4)n(C4CCOCC4)c3c2c1` [Example 76, 8-fluoro-2-(2H-indazol-2-ylmethyl)-1-(tetrahydro-2H-pyran-4-yl)-1H-imidazo[4,5-c]quinoline, trifluoroacetate salt], the IC50 in experiment [1] (setting [6]) came out at 67.5 nM; in experiment [3], 54.5 nM.

`c1ccc2c(c1)ncc1nc(Cn3cc(C4CC4)nn3)n(C3CCOCC3)c12` [Example 42, 2-[(4-cyclopropyl-1H-1,2,3-triazol-1-yl)methyl]-1-(tetrahydro-2H-pyran-4-yl)-1H-imidazo[4,5-c]quinoline]: the IC50 in experiment [1] (setting [6]) was 51.2 nM; in experiment [3], 55.9 nM.

On to `Cc1cc(Cc2nc3cnc4ccccc4c3n2C2CCOCC2)no1` [Example 39, 2-[(5-methyl-1,2-oxazol-3-yl)methyl]-1-(tetrahydro-2H-pyran-4-yl)-1H-imidazo[4,5-c]quinoline], for which the IC50 in experiment [1] (setting [6]) worked out at 103 nM; in experiment [3], 157 nM.

Take `Cc1cn(Cc2nc3cnc4ccccc4c3n2C2CCOCC2)nn1` [Example 32, 2-[(4-methyl-1H-1,2,3-triazol-1-yl)methyl]-1-(tetrahydro-2H-pyran-4-yl)-1H-imidazo[4,5-c]quinoline]: the figures for the IC50 in experiment [1] (setting [6]) and in experiment [3] were 98.6 nM and 121 nM, respectively.

For `COc1ccc2ncc3nc(Cc4noc(C)n4)n([C@@H]4CCO[C@H](C)C4)c3c2c1` [Example 87, 8-methoxy-2-[(5-methyl-1,2,4-oxadiazol-3-yl)methyl]-1-[(2R,4R)-2-methyltetrahydro-2H-pyran-4-yl]-1H-imidazo[4,5-c]quinoline], the IC50 amounted to 111 nM in experiment [1] (setting [6]) and 38.8 nM in experiment [3].

For the compound `Cc1nc(Cc2nc3cnc4ccc(Cl)cc4c3n2[C@H]2CCO[C@@H](C)C2)no1` [Example 51, 8-chloro-2-[(5-methyl-1,2,4-oxadiazol-3-yl)methyl]-1-[(2S,4S)-2-methyltetrahydro-2H-pyran-4-yl]-1H-imidazo[4,5-c]quinoline], the half-maximal inhibitory concentration (IC50) stood at 109 nM in experiment [1] (setting [6]) and 49.3 nM in experiment [3]. Also, the “LRRK2 potency compared to Example 5 (its enantiomer)” value in experiment [1] (qualitative statement referring to Table 3 data) is reported as “significantly less potent”.

On to `C[C@@H]1C[C@H](n2c(Cc3ccon3)nc3cnc4ccc(Br)cc4c32)CCO1` (single isomer, unassigned) [Example 12], for which the IC50 is 4.5 nM in experiment [1] (setting [6]) and 2.4 nM in experiment [3].

For `Cc1cnc(Cc2nc3cnc4ccc(Cl)cc4c3n2[C@@H]2CCO[C@H](C)C2)o1` [Example 92, 8-chloro-2-[(5-methyl-1,3-oxazol-2-yl)methyl]-1-[(2R,4R)-2-methyltetrahydro-2H-pyran-4-yl]-1H-imidazo[4,5-c]quinoline], the IC50 in experiment [1] (setting [6]) was 16.2 nM; in experiment [3], 11 nM.

In the case of `c1ccc2c(c1)ncc1nc(Cn3nnc4ccccc43)n(C3CCOCC3)c12` [Example 41, 2-(1H-benzotriazol-1-ylmethyl)-1-(tetrahydro-2H-pyran-4-yl)-1H-imidazo[4,5-c]quinoline], the IC50 in experiment [1] (setting [6]) turned out to be 124 nM; in experiment [3], 93.5 nM.
